Columns and labels:
H. armigera larvae = experiment: Insect feeding trial with artificial cotton leaf diet; type: in vivo; conditions: 0.3% (w/v) test protein in artificial diet; casein control; FIG. 16
Description: Table 2 Artificial diet ingredients used in the feeding trial of H. armigera [table] Helicoverpa punctigera larvae came from a colony collected in Victoria, Australia and maintained in culture at La Trobe University, Melbourne and H. armigera were obtained from a colonies maintained at La Trobe University, Melbourne or the Australian Cotton Research Institute, at the Entomology Department of the Commonwealth Scientific and Industrial Research Organisation in Narrabri, NSW. To confirm that the insecticidal activity was due to the defensin and not to upregulation of other endogenous defense molecules, a feeding trial using artificial cotton leaf diet containing purified defensin from floral buds was performed. The 6 kDa cysteine rich proteinase inhibitors (NaPI) from N. alata (Atkinson et al., Plant Cell 5: 203-213, 1993) were used as positive control and casein was used as a negative control. Feeding trials were conducted as described in Heath et al. (J. Insect Physiology 43: 833-842, 1997 except that the artificial diet was based on cotton leaves (Table 2). Thirty milligram of defensin was purified from floral buds of N. alata and used in artificial diets at two concentrations. H. armigera larvae fed on defensin at 0.3% (w/v) were 40% smaller than controls (FIG. 16) while larvae fed on NaPI at the same concentration were about 60% smaller than controls.

Botrytis cinerea = experiment: Fungal growth inhibition assay, 96-well microtitre plate, absorbance at 595 nm; type: cell-based; conditions: 20 μg/mL purified protein; FIG. 11
Description: (§1) The 96-well microtitre plate assay of Broekaert et al. (EMS Microbiology Letters 69:55-60, 1990) was used to test the effect of the purified NaPdf1 protein on the growth of Botrytis cinerea (isolated from rosemary, Brunswick, Victoria), Fusarium oxysporum (f. sp. dianthi, Race 2; isolated from carnation by Florigene Limited, Collingwood, Victoria) and Fusarium oxysporum (f. sp. vasinfectum, isolate VCG 01111 from cotton; provided by the Department of Primary Industries, Queensland). Fungal spores were isolated from sporulating cultures growing on half strength potato dextrose agar (PDA, Difco) or gamma-irradiated carnation leaves in water agar by the addition of sterile water and the use of a spreader. The suspension was filtered through two layers of autoclaved muslin and the spore concentration in the filtrate determined using a haemocytometer. The spores were used directly or after storage in sterile 20% v/v glycerol solution at −20° C.
(§2) Antifungal assays were performed in 96-well flat-bottomed microtitre plates (Greiner) under aseptic conditions. The spore concentration was adjusted to about 2×10^4 spores/mL in PDB and 80 μL of this suspension was added to each well to which 20 μL of filter sterilised (0.22 μm syringe filter, Millipore) test protein (10, 50 or 100 μg/mL) or water was added. The purity and concentration of each protein was confirmed before use by RP-HPLC analysis. Sterile water and ovalbumin (Sigma) were added to other wells as negative controls, and a mixture of the antifungal proteins α- and β-purothionin (Sigma) was used as a positive control. The plates were shaken on an orbital shaker for a few seconds to mix the spores and the test proteins. The plates were allowed to stand for 30 min to allow the spores to sediment before the optical density of the plates were determined using a Spectra Max Pro 250 microplate reader (Molecular Devices) at 595 nm absorbance. […] An increase in absorbance relative to the initial reading was correlated with the growth of fungal hyphae and this was plotted against time. […]

[1] = tested on: Fusarium oxysporum (f. sp. vasinfectum, isolate VCG 01111); experiment: as above; type: cell-based; conditions: 20 μg/mL purified protein; FIGS. 12B and 12C
Description: as §1, §2

[2] = tested on: Fusarium oxysporum (f. sp. dianthi, Race 2); experiment: as above; type: cell-based; conditions: 20 μg/mL purified protein; FIG. 12A
Description: as §1, §2

**Q.** With “NaPdf1: Mature floral defensin (47 amino acids, ~5.3 kDa) from Nicotiana alata, purified from floral buds (RECKTESNTFPGICITKPPCRKACISEKFTDGHCSKILRRCLCTKPC; listed as Nicotiana alata)” as the substance, how does the “larvae smaller than controls (mean weight)” value (H. armigera larvae) read?
**A.** 40%

**Q.** And the “growth inhibition of B. cinerea” value (Botrytis cinerea)?
**A.** effectiveness

**Q.** What about the “growth inhibition of F. oxysporum f. sp. vasinfectum” value [1] of the same substance?
**A.** effectiveness

**Q.** What about the “growth inhibition of F. oxysporum f. sp. dianthi” value [2] of the same substance?
**A.** effectiveness

— patent US9896697B2, “Defensin-encoding nucleic acid molecules derived from Nicotiana alata, uses therefor and transgenic plants comprising same” (HEXIMA LIMITED, priority 2001, dated 2018)
